# Measured values as given in patent US8192962B2, “Processes for detecting toxic substances” (Daikin Industries, Ltd., priority 2001, dated 2012).
# Tested on: Transport facilitation protein genes
# Assay: DNA chip mRNA expression in yeast, transport facilitation protein genes (Table 5)
# Assay type: cell-based, Saccharomyces cerevisiae S288C
# Method in brief: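 In this screen, yeast in logarithmic growth are challenged for two hours with a toxic substance at a non-lethal inhibitory concentration. Their mRNA, converted to Cy3- or Cy5-labeled cDNA, hybridizes at 65° C. to a chip spanning every yeast gene, and expression is expressed as a ratio to untreated cells.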
smiles,measurement,setting,value
"CCCCC[C@H](O)CC(=O)CCc1ccc(O)c(OC)c1 [(13), gingerol]",The level of expressed mRNA in the presence of chemical substance/The level of expressed mRNA in the absence of chemical substance,yeast gene YHL036W,1.5
same,The level of expressed mRNA in the presence of chemical substance/The level of expressed mRNA in the absence of chemical substance,yeast gene YHL040C,2.0
same,The level of expressed mRNA in the presence of chemical substance/The level of expressed mRNA in the absence of chemical substance,yeast gene YHL047C,3.8
same,The level of expressed mRNA in the presence of chemical substance/The level of expressed mRNA in the absence of chemical substance,yeast gene YHR026W,0.7
same,The level of expressed mRNA in the presence of chemical substance/The level of expressed mRNA in the absence of chemical substance,yeast gene YHR048W,1.1
same,The level of expressed mRNA in the presence of chemical substance/The level of expressed mRNA in the absence of chemical substance,yeast gene YHR092C,0.5
same,The level of expressed mRNA in the presence of chemical substance/The level of expressed mRNA in the absence of chemical substance,yeast gene YHR094C,0.7
same,The level of expressed mRNA in the presence of chemical substance/The level of expressed mRNA in the absence of chemical substance,yeast gene YHR175W,1.2
same,The level of expressed mRNA in the presence of chemical substance/The level of expressed mRNA in the absence of chemical substance,yeast gene YIL006W,0.8
same,The level of expressed mRNA in the presence of chemical substance/The level of expressed mRNA in the absence of chemical substance,yeast gene YIL022W,1.2
same,The level of expressed mRNA in the presence of chemical substance/The level of expressed mRNA in the absence of chemical substance,yeast gene YIL056W,1.5
same,The level of expressed mRNA in the presence of chemical substance/The level of expressed mRNA in the absence of chemical substance,yeast gene YIL088C,1.5
same,The level of expressed mRNA in the presence of chemical substance/The level of expressed mRNA in the absence of chemical substance,yeast gene YJL212C,1.0
same,The level of expressed mRNA in the presence of chemical substance/The level of expressed mRNA in the absence of chemical substance,yeast gene YJR077C,0.9
same,The level of expressed mRNA in the presence of chemical substance/The level of expressed mRNA in the absence of chemical substance,yeast gene YJR095W,0.8
same,The level of expressed mRNA in the presence of chemical substance/The level of expressed mRNA in the absence of chemical substance,yeast gene YJR121W,1.0
same,The level of expressed mRNA in the presence of chemical substance/The level of expressed mRNA in the absence of chemical substance,yeast gene YKL016C,1.3
same,The level of expressed mRNA in the presence of chemical substance/The level of expressed mRNA in the absence of chemical substance,yeast gene YKL188C,1.2
same,The level of expressed mRNA in the presence of chemical substance/The level of expressed mRNA in the absence of chemical substance,yeast gene YKL217W,1.2
same,The level of expressed mRNA in the presence of chemical substance/The level of expressed mRNA in the absence of chemical substance,yeast gene YKL221W,1.6
same,The level of expressed mRNA in the presence of chemical substance/The level of expressed mRNA in the absence of chemical substance,yeast gene YKR039W,1.3
same,The level of expressed mRNA in the presence of chemical substance/The level of expressed mRNA in the absence of chemical substance,yeast gene YKR067W,1.3
same,The level of expressed mRNA in the presence of chemical substance/The level of expressed mRNA in the absence of chemical substance,yeast gene YKR105C,2.5
same,The level of expressed mRNA in the presence of chemical substance/The level of expressed mRNA in the absence of chemical substance,yeast gene YLL055W,1.5
same,The level of expressed mRNA in the presence of chemical substance/The level of expressed mRNA in the absence of chemical substance,yeast gene YLR081W,0.6
same,The level of expressed mRNA in the presence of chemical substance/The level of expressed mRNA in the absence of chemical substance,yeast gene YLR092W,1.8
same,The level of expressed mRNA in the presence of chemical substance/The level of expressed mRNA in the absence of chemical substance,yeast gene YLR295C,0.8
same,The level of expressed mRNA in the presence of chemical substance/The level of expressed mRNA in the absence of chemical substance,yeast gene YLR348C,1.9
same,The level of expressed mRNA in the presence of chemical substance/The level of expressed mRNA in the absence of chemical substance,yeast gene YLR378C,1.6
same,The level of expressed mRNA in the presence of chemical substance/The level of expressed mRNA in the absence of chemical substance,yeast gene YML116W,0.8
same,The level of expressed mRNA in the presence of chemical substance/The level of expressed mRNA in the absence of chemical substance,yeast gene YMR162C,0.9
same,The level of expressed mRNA in the presence of chemical substance/The level of expressed mRNA in the absence of chemical substance,yeast gene YNL055C,2.4
same,The level of expressed mRNA in the presence of chemical substance/The level of expressed mRNA in the absence of chemical substance,yeast gene YNR072W,1.5
same,The level of expressed mRNA in the presence of chemical substance/The level of expressed mRNA in the absence of chemical substance,yeast gene YOL119C,1.6
same,The level of expressed mRNA in the presence of chemical substance/The level of expressed mRNA in the absence of chemical substance,yeast gene YOL156W,1.7
same,The level of expressed mRNA in the presence of chemical substance/The level of expressed mRNA in the absence of chemical substance,yeast gene YOL158C,1.4
same,The level of expressed mRNA in the presence of chemical substance/The level of expressed mRNA in the absence of chemical substance,yeast gene YOL163W,2.4
same,The level of expressed mRNA in the presence of chemical substance/The level of expressed mRNA in the absence of chemical substance,yeast gene YOR035C,2.5
same,The level of expressed mRNA in the presence of chemical substance/The level of expressed mRNA in the absence of chemical substance,yeast gene YOR130C,2.1
same,The level of expressed mRNA in the presence of chemical substance/The level of expressed mRNA in the absence of chemical substance,yeast gene YOR153W,11.8
same,The level of expressed mRNA in the presence of chemical substance/The level of expressed mRNA in the absence of chemical substance,yeast gene YOR270C,1.3
same,The level of expressed mRNA in the presence of chemical substance/The level of expressed mRNA in the absence of chemical substance,yeast gene YOR273C,2.6
same,The level of expressed mRNA in the presence of chemical substance/The level of expressed mRNA in the absence of chemical substance,yeast gene YOR316C,1.6
same,The level of expressed mRNA in the presence of chemical substance/The level of expressed mRNA in the absence of chemical substance,yeast gene YOR332W,2.2
same,The level of expressed mRNA in the presence of chemical substance/The level of expressed mRNA in the absence of chemical substance,yeast gene YPL036W,0.3
same,The level of expressed mRNA in the presence of chemical substance/The level of expressed mRNA in the absence of chemical substance,yeast gene YPL134C,1.0
same,The level of expressed mRNA in the presence of chemical substance/The level of expressed mRNA in the absence of chemical substance,yeast gene YPL265W,1.1
same,The level of expressed mRNA in the presence of chemical substance/The level of expressed mRNA in the absence of chemical substance,yeast gene YPL271W,1.2
same,The level of expressed mRNA in the presence of chemical substance/The level of expressed mRNA in the absence of chemical substance,yeast gene YPR124W,0.6
same,The level of expressed mRNA in the presence of chemical substance/The level of expressed mRNA in the absence of chemical substance,yeast gene YPR194C,1.0
